Read-outs that look alike come from different tables or passages of the source.
Test: Phase 1/2 clinical study, plasma pharmacokinetic evaluation
Format: in vivo, human
Conditions: human, plasma, oral
Method: In the present test of the present compound, PK samples have been collected in up to 24 patients dosed in dose groups of 40, 80, 100, and 120 mg BID Arm A, and in dose groups of 40 and 60 mg BID Arm B (Table 6). Large preliminary PK inter-patient variability was observed.
(1) In the present study, PK samples have been collected in up to 42 patients dosed in dose groups of 40, 80, 100, 120, 140 and 200 mg BID Arm A, and in dose groups of 40, 60, 100, and 200 mg BID Arm B (Table 15).
(2) In the present study, PK samples have been collected in patients dosed in dose groups of 40, 80, 100, 120, 140, 200, and 300 mg BID Arm A, and in dose groups of 40, 60, 100, 200, and 300 mg BID Arm B (Table 16).

[1] = 100 mg, 100 mg BID Arm A, C2D1, N=1
[2] = 100 mg, 100 mg BID Arm B, Cycle 1 Day 1, N=4, mean
[3] = 100 mg, 100 mg BID Arm B, Cycle 2 Day 1, N=4, mean
[4] = 100 mg, Cycle 1 Day 1, 100 mg BID Arm A (without azole), N=2, mean
[5] = 100 mg, Cycle 1 Day 1, 100 mg BID Arm B (with azole), N=4, mean
[6] = 100 mg, Cycle 2 Day 1, 100 mg BID Arm A (without azole), N=1
[7] = 100 mg, Cycle 2 Day 1, 100 mg BID Arm B (with azole), N=4, mean
[8] = 100 mg, Table 15 cut-off, 100 mg BID Arm A, Cycle 1 Day 1, N=2, mean
[9] = 100 mg, Table 15 cut-off, 100 mg BID Arm A, Cycle 2 Day 1, N=1
[10] = 120 mg, 120 mg BID Arm A, C1D1, N=6, mean
[11] = 120 mg, 120 mg BID Arm A, C2D1, N=6, mean
[12] = 120 mg, Cycle 1 Day 1, 120 mg BID Arm A (without azole), N=6, mean
[13] = 120 mg, Cycle 2 Day 1, 120 mg BID Arm A (without azole), N=6, mean
[14] = 120 mg, Table 15 cut-off, 120 mg BID Arm A, Cycle 1 Day 1, N=6, mean
[15] = 120 mg, Table 15 cut-off, 120 mg BID Arm A, Cycle 2 Day 1, N=6, mean
[16] = 140 mg, 140 mg BID Arm A, Cycle 1 Day 1, N=6 (incl. two patients with MDS), mean
[17] = 140 mg, 140 mg BID Arm A, Cycle 2 Day 1, N=5 (incl. two patients with MDS), mean
[18] = 140 mg, Cycle 1 Day 1, 140 mg BID Arm A (without azole), N=6 (two MDS patients included, one pt excluded), mean
[19] = 140 mg, Cycle 2 Day 1, 140 mg BID Arm A (without azole), N=5 (two MDS patients included, one pt excluded), mean
[20] = 140 mg, Cycle 2 Day 1, 140 mg BID Arm B (with azole), N=1
[21] = 200 mg, 200 mg BID Arm A, Cycle 1 Day 1, N=4, mean
[22] = 200 mg, 200 mg BID Arm B, Cycle 1 Day 1, N=6, mean
[23] = 200 mg, 200 mg BID Arm B, Cycle 2 Day 1, N=2, mean
[24] = 200 mg, Cycle 1 Day 1, 200 mg BID Arm A (without azole), N=5, mean
[25] = 200 mg, Cycle 1 Day 1, 200 mg BID Arm B (with azole), N=11, mean
[26] = 200 mg, Cycle 2 Day 1, 200 mg BID Arm A (without azole), N=3, mean
[27] = 200 mg, Cycle 2 Day 1, 200 mg BID Arm B (with azole), N=5 (three patients excluded), mean
[28] = 300 mg, Cycle 1 Day 1, 300 mg BID Arm A (without azole), N=4, mean
[29] = 300 mg, Cycle 1 Day 1, 300 mg BID Arm B (with azole), N=3 (one patient pending re-assay), mean
[30] = 300 mg, Cycle 2 Day 1, 300 mg BID Arm A (without azole), N=3, mean
[31] = 300 mg, Cycle 2 Day 1, 300 mg BID Arm B (with azole), N=1 (one patient pending re-assay)

In the case of C=C1C[C@@H]2CC[C@H]1[C@@H](C(=O)N1CCC3(CC1)CN(c1ncncc1Oc1ccc(F)cc1C(=O)N(C(C)C)C(C)C)C3)N2 [the present compound, 5-fluoro-2-[(4-{7-[(1S,3S,4R)-5-methylidene-2-azabicyclo[2.2.2]octane-3-carbonyl]-2,7-diazaspiro[3.5]nonan-2-yl}pyrimidin-5-yl)oxy]-N,N-di(propan-2-yl)benzamide], the Tmax (100 mg, 100 mg BID Arm A, C1D1, N=2, mean) is reported as 3 h, the half-life (100 mg, 100 mg BID Arm A, C1D1, N=2, mean, read-out: t1/2 (converted)) is reported as 5.64 h and the AUC(0-t) [1] is reported as 6060 ng·h/mL. It also gave a Cmax [1] of 2840 ng/mL, a Tmax [1] of 1 h and a half-life (100 mg, 100 mg BID Arm A, C2D1, N=1, read-out: t1/2 (converted)) of 2.88 h. It also gave an AUC(0-t) [2] of 5600 ng·h/mL, a Cmax [2] of 1650 ng/mL and an AUC(0-t) [3] of 8350 ng·h/mL. For the same compound, the Cmax [3] was 1810 ng/mL, the AUC(0-t) [4] was 4940 ng·h/mL and the Cmax [4] was 1380 ng/mL. The AUC(0-t) [5] was 5600 ng·h/mL, the Cmax [5] was 1650 ng/mL and the AUC(0-t) [6] was 6060 ng·h/mL. It also gave a Cmax [6] of 2840 ng/mL, an AUC(0-t) [7] of 8350 ng·h/mL and a Cmax [7] of 1810 ng/mL. The AUC(0-t) [8] was 4940 ng·h/mL, the Cmax [8] was 1380 ng/mL and the AUC(0-t) [9] was 6060 ng·h/mL. It also gave a Cmax [9] of 2840 ng/mL, an AUC(0-t) [10] of 6250 ng·h/mL and a Cmax [10] of 2280 ng/mL. It also gave a Tmax [10] of 1.25 h, a half-life (120 mg, 120 mg BID Arm A, C1D1, N=6, mean, read-out: t1/2 (converted)) of 2.87 h and an AUC(0-t) [11] of 7860 ng·h/mL. The Cmax [11] was 1980 ng/mL, the Tmax [11] was 1.2 h and the half-life (120 mg, 120 mg BID Arm A, C2D1, N=6, mean, read-out: t1/2 (converted)) was 3.26 h. It also gave an AUC(0-t) [12] of 6290 ng·h/mL, a Cmax [12] of 2320 ng/mL and an AUC(0-t) [13] of 7970 ng·h/mL. For the same compound, the Cmax [13] was 1980 ng/mL, the AUC(0-t) [14] was 6290 ng·h/mL and the Cmax [14] was 2320 ng/mL. It also gave an AUC(0-t) [15] of 7970 ng·h/mL, a Cmax [15] of 1980 ng/mL and an AUC(0-t) [16] of 3570 ng·h/mL. For the same compound, the Cmax [16] was 1480 ng/mL, the AUC(0-t) [17] was 4200 ng·h/mL and the Cmax [17] was 1670 ng/mL. It also gave an AUC(0-t) [18] of 3570 ng·h/mL, a Cmax [18] of 1480 ng/mL and an AUC(0-t) (140 mg, Cycle 1 Day 1, 140 mg BID Arm B (with azole), N=2, mean) of 7000 ng·h/mL. For the same compound, the AUC(0-t) [19] was 4200 ng·h/mL, the Cmax [19] was 1670 ng/mL and the AUC(0-t) [20] was 5520 ng·h/mL. For the same compound, the Cmax [20] was 1770 ng/mL, the AUC(0-t) [21] was 9650 ng·h/mL and the Cmax [21] was 3850 ng/mL. The AUC(0-t) [22] was 21200 ng·h/mL, the Cmax [22] was 6260 ng/mL and the AUC(0-t) [23] was 16700 ng·h/mL. It also gave a Cmax [23] of 4360 ng/mL, an AUC(0-t) [24] of 12100 ng·h/mL and a Cmax [24] of 3870 ng/mL. It also gave an AUC(0-t) [25] of 21200 ng·h/mL, a Cmax [25] of 5700 ng/mL and an AUC(0-t) [26] of 12000 ng·h/mL. For the same compound, the Cmax [26] was 3850 ng/mL, the AUC(0-t) [27] was 16800 ng·h/mL and the Cmax [27] was 4070 ng/mL. For the same compound, the AUC(0-t) [28] was 15900 ng·h/mL, the Cmax [28] was 6070 ng/mL and the AUC(0-t) [29] was 26000 ng·h/mL. The Cmax [29] was 5970 ng/mL, the AUC(0-t) [30] was 12400 ng·h/mL and the Cmax [30] was 3060 ng/mL. The AUC(0-t) [31] was 20500 ng·h/mL, the Cmax [31] was 4210 ng/mL and the half-life (Arm A (without azole), FIGS. 4A to 4D cut-off, read-out: Mean t1/2) was 2 to 6 h. The half-life (Arm A, 40-120 mg BID, read-out: Mean plasma t1/2) was 2.82 to 5.64 h, the half-life (Arm A, 40-200 mg BID (up to 42 patients), read-out: Mean apparent half-life) was 2 to 5 h and the half-life (Arm A, 40-300 mg BID, read-out: Mean apparent half-life) was 2 to 4 h. For the same compound, the half-life (Arm B (with azole), FIGS. 4A to 4D cut-off, read-out: Mean t1/2) was 3 to 7 h, the half-life (Arm B, 40-60 mg BID, read-out: Mean plasma t1/2) was 2.61 to 7.29 h and the half-life (Arm B, 40-200 mg BID (up to 42 patients), read-out: Mean apparent half-life) was 3 to 7 h. For the same compound, the half-life (Arm B, 40-300 mg BID, read-out: Mean apparent half-life) was 3 to 7 h and the Tmax (post dose, Arms A and B, first cut-off) was at most 2 h.

— US20260248787A9, “MEDICAMENT FOR TREATING CANCER COMPRISING OPTICALLY ACTIVE AZABICYCLO RING DERIVATIVE” (Sumitomo Pharma Co., Ltd., priority 2023, published 2026)
